Active and inactive are the calls of the source. No cut-off for these calls is given here.
Tests used:
Histone deacetylase [1] = experiment: Inhibition of HDAC in human HeLa nuclear extract using fluor de lys as substrate after 10 to 15 mins by spectrofluorometry; type: protein assay
Histone deacetylase [2] = experiment: Inhibition of HDAC in human HeLa cells using Boc-Lys(AC)-AMC as substrate after 24 to 48 hrs by spectrofluorometry; type: cell-based
C127-LT [3] = experiment: Inhibition of HDAC in mouse C127-LT cells assessed as activation of EGFP expression at 10 uM after 24 hrs by fluorescence microscopy; type: cell-based
C127-LT [4] = experiment: Inhibition of HDAC in mouse C127-LT cells assessed as activation of EGFP expression at 200 nM after 24 hrs by fluorescence microscopy; type: cell-based
[5] = target: T1, Histone deacetylase (Homo sapiens) (UniProt Q13547+O15379+Q9UBN7+Q92769+Q9UQL6+Q8WUI4+Q9BY41+Q96DB2+P56524+Q9UKV0+Q969S8); details: at 10 to 25 µM
Description: Competitive inhibition of HDAC in human HeLa nuclear cells at 10 to 25 uM using Boc-acetyl-lysine-AMC as substrate after 30 mins by Lineweaver-Burk plot analysis

[6] = target: T1, Histone deacetylase (Homo sapiens); experiment: Inhibition of HDAC in human HeLa nuclear extract assessed as accumulation of acetylated histone H3 at 0.1 to 100 uM after 24 hrs by western blot analysis; type: protein assay
C127-LT [7] = experiment: Inhibition of HDAC in mouse C127-LT cells assessed as activation of EGFP expression at 1 uM after 24 hrs by fluorescence microscopy; type: cell-based

SMILES | inhibition (C127-LT [3]) | also measured
O=C(/C=C/c1ccc(O)c(O)c1)O[C@@H]1C[C@](O)(C(=O)O)C[C@@H](O)[C@H]1O [CHLOROGENIC ACID] | inactive | IC50 (Histone deacetylase [1]): > 200 µM; IC50 (Histone deacetylase [2]): > 200 µM
CC(=O)OCCc1ccc(O)c(O)c1 | Active | –
CC(/C=C/C(=O)NO)=C\[C@@H](C)C(=O)c1ccc(N(C)C)cc1 | – | inhibition (C127-LT [4]): Active
COc1cc2c(cc1OC)[C@@H]1Cc3ccc(O)c(O)c3CN1CC2 | Active | –
O=C(/C=C/c1ccc(O)c(O)c1)O[C@@H]1C[C@@](O)(C(=O)O)C[C@@H](O)[C@@H]1O | inactive | IC50 (Histone deacetylase [1]): 170.4 µM; IC50 (Histone deacetylase [2]): > 200 µM
C=C1[C@@H]2[C@H]3OC(=O)[C@@H](CN4CCC[C@H]4C(=O)O)[C@@H]3[C@@H](OC(=O)C(C)(O)CO)CC(=C)[C@@H]2C[C@@H]1O (some centres undefined) | inactive | –
C=C1[C@@H]2[C@H]3OC(=O)[C@@H](CN[C@H](C(=O)O)C(C)C)[C@@H]3[C@@H](O)CC(=C)[C@@H]2C[C@@H]1O | inactive | –
COC(=O)[C@]1(O)C[C@@H](OC(=O)/C=C/c2ccc(O)c(O)c2)[C@@H](O)[C@H](OC(=O)/C=C/c2ccc(O)c(O)c2)C1 | Active | IC50 (Histone deacetylase [1]): 4.99 µM; IC50 (Histone deacetylase [2]): 7.59 µM; inhibition [5]: Active; inhibition [6]: Active
O=C(/C=C/c1ccc(O)c(O)c1)O[C@@H]1C[C@](O)(C(=O)O)C[C@@H](OC(=O)/C=C/c2ccc(O)c(O)c2)[C@H]1O | inactive | IC50 (Histone deacetylase [1]): 143.24 µM; IC50 (Histone deacetylase [2]): > 500 µM
C=C1C(=O)O[C@@H]2[C@H]3C(=C)[C@@H](O)C[C@H]3C(=C)C[C@H](OC(=O)CC(C)(C)O)[C@@H]12 | inactive | –
C=C(CO)C(=O)O[C@H]1CC(=C)[C@@H]2C[C@H](O)C(=C)[C@@H]2[C@H]2OC(=O)C(=C)[C@@H]21 | inactive | –
C=C1CC[C@@H]2[C@](C)(CCC[C@]2(C)C(=O)O)[C@H]1CCC1=CC(OCCCC)OC1=O (some centres undefined) | inactive | –
COc1ccc2cc3[n+](cc2c1OC)CCc1cc2c(cc1-3)OCO2 | Active | –
Nc1ccccc1NC(=O)c1ccc(CNC(=O)OCc2cccnc2)cc1 | Active | inhibition (C127-LT [7]): Active
COc1cc(-c2oc3cc(O)cc(O)c3c(=O)c2O[C@@H]2O[C@H](CO[C@@H]3O[C@@H](C)[C@H](O)[C@@H](O)[C@H]3O)[C@@H](O)[C@H](O)[C@H]2O)ccc1O | Active | –
COc1cc2c3c(cc4ccccc4c3c1O)NC2=O | inactive | –
C=C1C(=O)O[C@@H]2[C@H]3C(=C)[C@@H](O)C[C@H]3C(=C)C[C@H](OC(=O)C(C)(O)CO)[C@@H]12 (some centres undefined) | inactive | –
C=C1[C@@H]2[C@H]3OC(=O)[C@@H](CN[C@@H](Cc4c[nH]c5ccccc45)C(=O)O)[C@@H]3[C@@H](O)CC(=C)[C@@H]2C[C@@H]1O | inactive | –

Reference: ChEMBL document CHEMBL3792339, “Identification of new quinic acid derivatives as histone deacetylase inhibitors by fluorescence-based cellular assay” (Bioorg Med Chem Lett, 2016)
